For experiment [1], the target named is T1, Cysteinyl leukotriene receptor 1 (Homo sapiens, UniProt Q9Y271). Note: in other assays of this panel Not Active means under 50% inhibition at 10 µM.
T1 sequence (Q9Y271 whole entry): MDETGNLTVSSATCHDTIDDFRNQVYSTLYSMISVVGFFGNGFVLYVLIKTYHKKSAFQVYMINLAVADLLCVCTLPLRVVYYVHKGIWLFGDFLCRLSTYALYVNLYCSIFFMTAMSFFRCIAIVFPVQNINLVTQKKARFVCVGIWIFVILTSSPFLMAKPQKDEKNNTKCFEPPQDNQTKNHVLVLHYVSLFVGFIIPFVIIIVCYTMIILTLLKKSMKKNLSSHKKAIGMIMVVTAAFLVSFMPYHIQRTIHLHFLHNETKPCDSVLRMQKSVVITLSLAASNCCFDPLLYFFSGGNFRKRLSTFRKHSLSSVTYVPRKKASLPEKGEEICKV
The class given is cell membranes, CHO-K1, Membrane. The note with it: cho-k1.

Experiment [2] has as its target Carbonic anhydrase 2 (Homo sapiens, UniProt P00918). Put plainly: DRUGMATRIX: Carbonic Anhydrase II enzyme inhibition (substrate: 4-Nitrophenyl acetate (4-NPA)). The experiment is classed as tissue-based, Erythrocyte. Particulars: erythrocyte; Not Active = under 50% inhibition at 10 µM.
Experiment [3] addresses T2, Neuropeptide Y receptor type 2 (Homo sapiens, UniProt P49146).
T2 sequence (P49146 whole entry): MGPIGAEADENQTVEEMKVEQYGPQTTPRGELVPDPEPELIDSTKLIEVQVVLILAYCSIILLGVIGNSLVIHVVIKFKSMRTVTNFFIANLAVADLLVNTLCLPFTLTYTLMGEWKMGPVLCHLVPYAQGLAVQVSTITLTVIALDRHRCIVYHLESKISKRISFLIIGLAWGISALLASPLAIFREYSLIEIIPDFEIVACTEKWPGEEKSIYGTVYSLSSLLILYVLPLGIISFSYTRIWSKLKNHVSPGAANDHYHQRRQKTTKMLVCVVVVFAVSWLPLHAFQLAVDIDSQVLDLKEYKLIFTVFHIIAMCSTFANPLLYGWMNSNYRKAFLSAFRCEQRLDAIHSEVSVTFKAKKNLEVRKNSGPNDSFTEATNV
The class given is cell membranes, Membrane. The note with it: kan-ts.

In experiment [4] the target is Insulin receptor (Rattus norvegicus, UniProt P15127). The experiment is classed as cell membranes, Wistar, Liver, Membrane. Note: in other assays of this panel Not Active means under 50% inhibition at 10 µM.
The nature of experiment [5]: DRUGMATRIX: Leukotriene, BLT (LTB4) radioligand binding (ligand: [3H]LTB4). The experiment is classed as cell membranes, Membrane. Particulars: u-937; Not Active = under 50% inhibition at 10 µM.
Experiment [6] deals with C-C chemokine receptor type 5 (Homo sapiens, UniProt P51681). The class given is cell membranes, HEK293, Membrane. The note with it: hek293.
The target in experiment [7] is Aldo-keto reductase family 1 member B1 (Rattus norvegicus, UniProt P07943). Put plainly: biochemical. The class given is tissue-based, Lens of camera-type eye.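 Note: inhibition of aldose reductase enzyme activity, measured with DL-glyceraldehyde as the substrate; in other assays of this panel Not Active means under 50% inhibition at 10 µM.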
Experiment [8] addresses T3, Amine oxidase [flavin-containing] A (Homo sapiens, UniProt P21397).
T3 sequence (P21397 whole entry): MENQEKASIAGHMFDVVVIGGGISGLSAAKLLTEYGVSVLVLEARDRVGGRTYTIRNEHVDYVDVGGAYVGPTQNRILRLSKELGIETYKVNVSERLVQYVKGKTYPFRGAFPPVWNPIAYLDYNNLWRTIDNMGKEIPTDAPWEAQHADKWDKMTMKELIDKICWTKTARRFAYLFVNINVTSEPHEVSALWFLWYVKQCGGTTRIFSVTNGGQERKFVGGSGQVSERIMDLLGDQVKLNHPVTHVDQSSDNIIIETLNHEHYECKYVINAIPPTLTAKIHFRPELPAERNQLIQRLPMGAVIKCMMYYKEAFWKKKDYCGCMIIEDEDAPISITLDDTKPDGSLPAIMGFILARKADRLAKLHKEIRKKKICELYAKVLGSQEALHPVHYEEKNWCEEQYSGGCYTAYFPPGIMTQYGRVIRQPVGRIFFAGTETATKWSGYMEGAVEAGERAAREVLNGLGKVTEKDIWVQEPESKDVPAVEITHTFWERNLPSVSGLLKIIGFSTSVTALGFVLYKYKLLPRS
Put plainly: DRUGMATRIX: Monoamine Oxidase MAO-A enzyme inhibition (substrate: Kynuramine). Set-up: species or system BTI-TN-5B1-4. Particulars: Not Active = under 50% inhibition at 10 µM.

Sequence of C-C chemokine receptor type 5 (P51681 whole entry): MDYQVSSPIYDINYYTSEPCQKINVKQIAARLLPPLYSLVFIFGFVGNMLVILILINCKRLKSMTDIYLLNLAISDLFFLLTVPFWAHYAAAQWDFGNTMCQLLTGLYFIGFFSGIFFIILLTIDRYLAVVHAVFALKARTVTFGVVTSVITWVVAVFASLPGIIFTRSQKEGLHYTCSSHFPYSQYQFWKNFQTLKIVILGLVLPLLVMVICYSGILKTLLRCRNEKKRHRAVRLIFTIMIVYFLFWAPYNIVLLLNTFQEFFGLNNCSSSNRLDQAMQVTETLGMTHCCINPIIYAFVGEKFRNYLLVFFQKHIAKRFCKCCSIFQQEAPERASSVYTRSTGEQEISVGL
Sequence of Insulin receptor (P15127 27-759 limits assumed): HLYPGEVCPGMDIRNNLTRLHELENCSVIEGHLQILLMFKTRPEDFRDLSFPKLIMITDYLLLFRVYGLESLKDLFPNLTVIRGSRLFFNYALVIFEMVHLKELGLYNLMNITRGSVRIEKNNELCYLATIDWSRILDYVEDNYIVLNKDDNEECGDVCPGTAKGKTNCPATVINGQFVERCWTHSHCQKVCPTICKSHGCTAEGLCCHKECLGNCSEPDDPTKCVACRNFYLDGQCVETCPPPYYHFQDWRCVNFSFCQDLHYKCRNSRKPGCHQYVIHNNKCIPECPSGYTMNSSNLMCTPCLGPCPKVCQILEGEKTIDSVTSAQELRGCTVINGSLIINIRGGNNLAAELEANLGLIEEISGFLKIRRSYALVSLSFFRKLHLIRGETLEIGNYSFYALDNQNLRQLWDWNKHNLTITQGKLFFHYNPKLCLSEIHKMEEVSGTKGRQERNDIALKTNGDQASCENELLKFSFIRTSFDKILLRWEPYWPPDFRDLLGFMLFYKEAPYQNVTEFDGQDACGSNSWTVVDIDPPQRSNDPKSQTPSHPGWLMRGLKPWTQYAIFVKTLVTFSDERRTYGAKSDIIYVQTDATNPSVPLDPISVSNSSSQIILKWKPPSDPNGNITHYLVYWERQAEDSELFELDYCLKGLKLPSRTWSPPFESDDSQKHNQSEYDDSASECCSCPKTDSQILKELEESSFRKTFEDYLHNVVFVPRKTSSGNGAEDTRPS
Sequence of Insulin receptor (P15127 764-1383 limits assumed): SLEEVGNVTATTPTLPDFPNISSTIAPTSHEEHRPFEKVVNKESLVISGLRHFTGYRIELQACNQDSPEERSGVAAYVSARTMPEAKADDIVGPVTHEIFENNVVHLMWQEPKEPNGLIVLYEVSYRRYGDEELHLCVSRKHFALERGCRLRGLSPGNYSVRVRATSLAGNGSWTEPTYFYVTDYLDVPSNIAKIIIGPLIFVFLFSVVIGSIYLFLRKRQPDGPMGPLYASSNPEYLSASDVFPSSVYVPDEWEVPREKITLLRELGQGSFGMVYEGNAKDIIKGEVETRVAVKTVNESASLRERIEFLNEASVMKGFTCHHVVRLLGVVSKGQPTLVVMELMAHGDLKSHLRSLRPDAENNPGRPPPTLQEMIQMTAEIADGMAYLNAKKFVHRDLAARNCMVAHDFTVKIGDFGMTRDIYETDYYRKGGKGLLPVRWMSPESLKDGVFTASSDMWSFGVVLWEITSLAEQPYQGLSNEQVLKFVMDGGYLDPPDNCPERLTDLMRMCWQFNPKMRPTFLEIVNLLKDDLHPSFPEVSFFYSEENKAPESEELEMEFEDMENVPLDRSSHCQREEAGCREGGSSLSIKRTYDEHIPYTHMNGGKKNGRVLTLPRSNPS

With `C#C[C@]1(OC(C)=O)CC[C@H]2[C@@H]3CCC4=CC(=O)CC[C@@H]4[C@H]3CC[C@@]21C` [NORETHINDRONE ACETATE], the IC50 result in experiment [1], in experiment [2], in experiment [3], in experiment [4], in experiment [5] and in experiment [6] was “Not Active” in each case. The half-maximal inhibitory concentration (IC50) entry in experiment [7] and in experiment [8] (bti-tn-5b1-4) was “Not Active” each time. Moreover, the Ki entry in experiment [5] was “Not Active”.

With `COc1ccc2[nH]c([S+]([O-])Cc3ncc(C)c(OC)c3C)nc2c1` (stereo not drawn) [OMEPRAZOLE], the half-inhibitory concentration (IC50) entry in experiment [1], in experiment [2], in experiment [3], in experiment [4], in experiment [5] and in experiment [6] was “Not Active” each time. Further, the 50% inhibitory concentration (IC50) entry in experiment [7] and in experiment [8] (bti-tn-5b1-4) was “Not Active” throughout. In experiment [5], the Ki entry is given as “Not Active”.

Regarding `Cc1nccn1CC1CCc2c(c3ccccc3n2C)C1=O` (stereo not drawn) [ONDANSETRON], the IC50 entry in experiment [1], in experiment [2], in experiment [3], in experiment [4], in experiment [5] and in experiment [6] was “Not Active” throughout. The IC50 result in experiment [7] and in experiment [8] (bti-tn-5b1-4) was “Not Active” throughout. In addition, the Ki result in experiment [5] is “Not Active”.

For the compound `CCn1cc(C(=O)O)c(=O)c2cc(F)c(N3CCN(C)CC3)cc21` [PEFLOXACIN], the IC50 result in experiment [1], in experiment [2], in experiment [3], in experiment [4], in experiment [5] and in experiment [6] was “Not Active” throughout. The IC50 result in experiment [7] and in experiment [8] (bti-tn-5b1-4) was “Not Active” throughout. In experiment [5], the Ki result is on record as “Not Active”.

For the compound `CCCCOc1ccc(OCCCN2CCOCC2)cc1` [PRAMOXINE], the IC50 result in experiment [1], in experiment [2], in experiment [3], in experiment [4], in experiment [5] and in experiment [6] was “Not Active” in each case. For the same compound, the half-maximal inhibitory concentration (IC50) result in experiment [7] and in experiment [8] (bti-tn-5b1-4) was “Not Active” throughout. The Ki entry in experiment [5] was “Not Active”.

For `O=C(C1CCCCC1)N1CC(=O)N2CCc3ccccc3C2C1` (stereo not drawn) [PRAZIQUANTEL], the IC50 entry in experiment [1], in experiment [2], in experiment [3], in experiment [4], in experiment [5] and in experiment [6] was “Not Active” in each case. Besides, the IC50 result in experiment [7] and in experiment [8] (bti-tn-5b1-4) was “Not Active” throughout. In addition, the Ki entry in experiment [5] is “Not Active”.

Take `CCN(CC)CCOC(=O)c1ccc(N)cc1` [PROCAINE]: the IC50 result in experiment [1], in experiment [2], in experiment [3], in experiment [4], in experiment [5] and in experiment [6] was “Not Active” in each case. Also, the IC50 entry in experiment [7] and in experiment [8] (bti-tn-5b1-4) was “Not Active” throughout. Besides, the Ki result in experiment [5] is “Not Active”.

Turning to `CCCN(CCC)C(=O)C(CCC(=O)O)NC(=O)c1ccccc1` (stereo not drawn) [PROGLUMIDE], the IC50 entry in experiment [1], in experiment [2], in experiment [3], in experiment [4], in experiment [5] and in experiment [6] was “Not Active” each time. The half-maximal inhibitory concentration (IC50) result in experiment [7] and in experiment [8] (bti-tn-5b1-4) was “Not Active” each time. Also, the Ki entry in experiment [5] was “Not Active”.

Turning to `NC(=O)c1cnccn1` [PYRAZINAMIDE], the IC50 result in experiment [1], in experiment [2], in experiment [3], in experiment [4], in experiment [5] and in experiment [6] was “Not Active” each time. Besides, the IC50 result in experiment [7] and in experiment [8] (bti-tn-5b1-4) was “Not Active” each time. Further, the Ki entry in experiment [5] is reported as “Not Active”.

With `OC(CCN1CCCCC1)(c1ccccc1)C1CCCCC1` (stereo not drawn) [TRIHEXYPHENIDYL], the half-inhibitory concentration (IC50) entry in experiment [1], in experiment [2], in experiment [3], in experiment [4], in experiment [5] and in experiment [6] was “Not Active” in each case. Further, the 50% inhibitory concentration (IC50) entry in experiment [7] and in experiment [8] (bti-tn-5b1-4) was “Not Active” each time. In addition, the Ki entry in experiment [5] is given as “Not Active”.

As for `Cc1cc2cc3c(C)cc(=O)oc3c(C)c2o1` [TRIOXSALEN], the IC50 result in experiment [1], in experiment [2], in experiment [3], in experiment [4], in experiment [5] and in experiment [6] was “Not Active” each time. Further, the half-maximal inhibitory concentration (IC50) entry in experiment [7] was “Not Active”; in experiment [8] (read-out: IC50), 831 nM. Also, the Ki entry in experiment [5] is “Not Active”.

On to `CCCC(CCC)C(=O)O` [VALPROIC ACID], for which the IC50 result in experiment [1], in experiment [2], in experiment [3], in experiment [4], in experiment [5] and in experiment [6] was “Not Active” each time. Also, the IC50 result in experiment [7] and in experiment [8] (bti-tn-5b1-4) was “Not Active” each time. Also, in experiment [5], the Ki entry is given as “Not Active”.

Turning to `CCC1=C[C@@H]2CN(C1)Cc1c([nH]c3ccccc13)[C@@](C(=O)OC)(c1cc3c(cc1OC)N(C)[C@H]1[C@@](O)(C(=O)OC)[C@H](OC(C)=O)[C@]4(CC)C=CCN5CC[C@]31[C@@H]54)C2` [VINORELBINE], the IC50 entry in experiment [1], in experiment [2], in experiment [3], in experiment [4], in experiment [5] and in experiment [6] was “Not Active” throughout. The half-maximal inhibitory concentration (IC50) entry in experiment [7] and in experiment [8] (bti-tn-5b1-4) was “Not Active” in each case. The Ki entry in experiment [5] is “Not Active”.

Take CADMIUM DICHLORIDE: the IC50 result in experiment [1], in experiment [2], in experiment [3], in experiment [4], in experiment [5] and in experiment [6] was “Not Active” in each case. Moreover, the IC50 entry in experiment [7] and in experiment [8] (bti-tn-5b1-4) was “Not Active” each time. Also, the Ki result in experiment [1], in experiment [2], in experiment [3], in experiment [4], in experiment [5] and in experiment [6] was “Not Active” throughout. Moreover, the Ki result in experiment [7] and in experiment [8] (bti-tn-5b1-4) was “Not Active” each time.

The term IC50 denotes the concentration that inhibits the measured activity by half.
